From paper PMC9532951, “Identification and characterization of a novel SNAT2 (SLC38A2) inhibitor reveals synergy with glucose transport inhibition in cancer cells” (Frontiers in Pharmacology, 2022) come the findings set out here.

One test deals with SNAT1 and SNAT2. The test is described as follows: High-throughput compound screen, FMP assay in 384-well format (primary, confirmatory, control compounds). The format is cell-based, human. The method, then: For the high-throughput compound screen, the FMP assay was adapted into a 384-well format within the ANU Centre for Therapeutic Discovery. […] Compounds Australia stores compounds under robust environmental conditions and supplies them in assay ready plate format. We screened 33,934 compounds from the Collection Scaffold Library. Cells (10,000/well) were seeded into Corning 384-well black walled plates (CLS3985; Sigma-Aldrich) using a Multidrop Combi liquid dispensing robot (Thermo Fisher) in a 40 µl volume. Once seeded, cells were allowed to grow in a microplate incubator (Liconic) for 24 h at 37°C (humidified atmosphere with 95% air and 5% CO2). Subsequently, plates were washed thrice with 50 µL of mHBSS using a 405 TS washer (BioTek). Then, 50 µl of starvation medium was added and cells were incubated again for 24 h.
Assay-ready compound plates (384 well plates containing compound or DMSO controls) were then prepared prior to addition to cells. In addition to the supplied compounds, 5 µl γ-glutamyl-hydroxamate (GHX, 60 mM dissolved in mHBSS, serving as an inhibitor control) was added into inhibitor control wells using a JANUS G3 robot (PerkinElmer). Subsequently, 25 uL of mHBSS was dispensed into all wells of the 384 well plate using a Multidrop Combi. All samples were then mixed using the JANUS G3 robot and 15 µl dispensed on top of the cell monolayer to reach a final concentration of 10.05 µM.
The FMP dye was solved freshly with mHBSS, 20 µl of which was deposited into each well using the Multidrop Combi, and the cells were incubated at room temperatur for 30 min. Each plate was then placed in an EnVision microplate reader (PerkinElmer) and a single baseline measurement was taken for each well (bottom reads excitation at 531, emission at 579 nm). The plate was then transferred to the Multidrop Combi and 10 µl/well of 5 mM glutamine was dispensed into each well. After linearly shaking for 5 s, microplates were returned to the EnVision microplate reader for a single post-injection measurement per well. The change of fluorescence was measured after 60 s.
Z′ scores were calculated from the controls onboard each of the 384-well plates assayed in the primary and secondary screen as described by Zhang et al., ([Zhang et al., 1999]). For the control inhibitor γ-glutamyl-hydroxamate (GHX) a Z’ score of 0.717 was determined, which was a sufficient signal for a HTS.

In another test the target is T1, SNAT1 (Homo sapiens, UniProt Q9H2H9).
T1 construct: SNAT1 remained active as indicated by the Na^+-dependence of alanine uptake; endogenous in cells; host or cells: HCC1806 clone D126 (ASCT2ko, SNAT2ko), amino acid depleted for 24 h
T1 sequence (Q9H2H9 1-487): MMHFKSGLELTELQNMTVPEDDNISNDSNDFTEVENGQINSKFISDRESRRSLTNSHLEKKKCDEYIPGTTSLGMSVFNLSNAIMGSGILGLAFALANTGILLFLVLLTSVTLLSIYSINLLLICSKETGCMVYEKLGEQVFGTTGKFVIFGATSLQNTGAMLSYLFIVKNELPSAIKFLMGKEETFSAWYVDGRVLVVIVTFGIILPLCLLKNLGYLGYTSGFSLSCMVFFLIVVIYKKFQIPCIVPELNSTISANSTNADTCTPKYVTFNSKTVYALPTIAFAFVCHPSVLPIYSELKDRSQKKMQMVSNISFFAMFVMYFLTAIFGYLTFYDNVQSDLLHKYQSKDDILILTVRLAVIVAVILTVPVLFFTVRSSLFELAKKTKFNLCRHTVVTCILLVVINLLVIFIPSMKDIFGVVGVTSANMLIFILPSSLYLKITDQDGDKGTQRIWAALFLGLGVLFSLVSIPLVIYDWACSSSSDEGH
The test is described as follows: Alanine uptake in HCC1806 D126 (ASCT2ko, SNAT2ko) cells. The format is cell-based. As to conditions: for Alanine uptake (nmol / mg protein x 6 min): Figure 4B, replicates 1-3; for inhibition of alanine uptake: HCC1806 D126, Figure 4B, betaine and MeAIB 10 mM. The method, then:
To delete the SNAT2 (SLC38A2) gene in modified HCC1806 cells (clone C10 nullizygous for ASCT2 ([Broer et al., 2019])), the GeneArt CRISPR Nuclease Vector with OFP Reporter Kit (Invitrogen; A21174) was employed and complementary 19–20 bp long single-stranded oligonucleotides with overhangs were designed to produce a guide RNA (gRNA) for the Cas9 nuclease that would target exon 7 of the SNAT2 gene. Colonies were analysed by sequencing using the U6 primer included in the GeneArt CRISPR Nuclease Vector with OFP Reporter kit. Plasmids that contained the correct CRISPR nuclease construct were then used to transfect HCC1806 cells with Lipofectamine 2000 (Invitrogen). Prior to transfection, medium was replaced with 2 ml of fresh DMEM/F-12 (supplemented with 10% heat-inactivated FBS and 2 mM glutamine). Plasmid DNA (4 µg) and 10 µL of Lipofectamine 2000 were incubated separately for 5 min at room temperature in 500 µl of Opti-MEM (Invitrogen) before being combined and incubated for a further 30 min at room temperature. The DNA-Lipofectamine complex was then added to the cells in a dropwise manner and allowed to be absorbed over 6 h at 37°C, after which the medium was renewed with fresh DMEM/F-12. Cells were checked for red fluorescence using an EVOS FL cell imaging system (Thermo Fisher Scientific) 48–72 h post transfection. Subsequently, cells were detached using 0.25% Trypsin EDTA. After harvesting and washing thrice with PBS (pH 7.4), cells were resuspended in PBS (pH 7.4) supplemented with 5 mM glucose and 1% dialysed and heat inactivated FBS and passed through a 100 μm cell strainer. The cell filtrate was then pelleted once more and resuspended in the same buffer. Cells were sorted using an ARIA II FACS machine and individually dispensed into the wells of a 96-well plate. Nullizygous clones were identified using a series of assays including the FLIPR membrane potential assay, western blotting and sequencing.
Functional characterisation of plasma membrane transporters in human cancer cells was determined at 37°C using an array of radiolabelled amino acid substrates. Modified Hanks HEPES-buffered salts solution (mHBSS; 137 mM NaCl; 5.4 mM KCl; 2.7 mM K2HPO4; 1 mM CaCl2; 0.5 mM MgCl2; 0.44 mM KH2PO4; 0.4 mM MgSO4; 5 mM D-glucose; 5 mM HEPES; pH 7.4) was used to wash and incubate cells where sodium dependent transport was measured, while N-methyl-D-glucamine (NMDG) and potassium salts substituted sodium in NMDG mHBSS to measure sodium independent uptake. For the assay, cells were seeded in 35 mm dishes and, once confluent, were washed thrice with warm mHBSS solution and incubated with mHBSS containing an 100 µM amino acid at a final specific activity of ≥2000 cpm/nmol (U-[^14C]amino acids were from PerkinElmer). After 6 min, cells were washed thrice with ice-cold mHBSS, lysed with 500 µl of 0.1 M HCl, detached with a cell scraper and triturated. A 400 µl aliquot was used for scintillation counting, while the remainder was saved for protein mass quantification by Bradford assay. Transport rates were normalised to the protein content of the culture dish.

The structures appear in SMILES notation. Values joined by “and” are separate entries in the source; they are usually repeats but may differ in a detail not shown here. Equal entries are not always repeated.

Consider `Cc1ccc(S(=O)(=O)N(C)c2ccsc2C(=O)NCc2ccccc2C(F)(F)F)cc1` [Compound 57_E, 3-(N-methyl (4-methylphenyl)sulfonamido)-N-(2-trifluoromethylbenzyl)thiophene-2-carboxamide], for which the “% (delta) Fluorescence Signal” value with SNAT1 and SNAT2 (Figure 3A, ranked hits of the high-throughput screen, FMP assay) stood at 58.6322%. On SNAT1, the “discrimination between SNAT2 and SNAT1” value is listed as “discriminated against the close transporter homologue SNAT1”; the “inhibition of alanine uptake” value is recorded as “did not inhibit alanine uptake”. The “Alanine uptake (nmol / mg protein x 6 min)” value on SNAT1 (screening compounds) was 28.3148 nmol / mg protein x 6 min and 26.5203 nmol / mg protein x 6 min and 27.3289 nmol / mg protein x 6 min.
Regarding `N[C@@H](CCC(=O)NO)C(=O)O` [GHX, L-glutamic acid γ-monohydroxamate], the “reduction of FMP signal” value in the test with SNAT1 and SNAT2 (6 mM, 1 mM glutamine) worked out at 92%.
As to `C[N+](C)(C)CC(=O)O` [Betaine, betaine], the “Alanine uptake (nmol / mg protein x 6 min)” value on SNAT1 (10mM) was 27.8319 nmol / mg protein x 6 min and 27.8658 nmol / mg protein x 6 min and 25.4928 nmol / mg protein x 6 min. Further, the “inhibition of alanine uptake” value on SNAT1 is on record as “not inhibited”.
